Laboratory results as given in ChEMBL document CHEMBL1130991, “Synthesis and antibacterial activity of [6,5,5] and [6,6,5] tricyclic fused oxazolidinones” (Bioorg Med Chem Lett, 1998).
≈ marks a conversion by molar mass, not a printed value.

Key:
[1] = system: Staphylococcus epidermidis; assay: Antibacterial activity against Staphylococcus epidermidis UC30031UC; type: functional
Bacteroides fragilis [2] = assay: Antibacterial activity against Bacteroides fragilis UC12199; type: functional
Staphylococcus aureus [3] = assay: Antibacterial activity against Staphylococcus aureus UC9213; type: functional
Streptococcus pneumoniae = assay: Antibacterial activity against Streptococcus pneumoniae UC9912; type: functional
Enterococcus faecalis = assay: Antibacterial activity against Enterococcus faecalis UC9217; type: functional
Staphylococcus aureus [4] = assay: Antibacterial activity against Staphylococcus aureus UC12673; type: functional
Mus musculus [5] = assay: (§1) Effective dose required to inhibit Staphylococcus aureus UC9213 in mice subjected to a lethal systemic infection (when administered orally); type: functional; settings: po
Mus musculus [6] = assay: Compound was evaluated for antibacterial activity against Staphylococcus aureus UC9213 ((methicillin susceptible) in mice administered orally; type: functional; settings: po
Bacteroides fragilis [7] = assay: Compound was evaluated for antibacterial activity against Bacteroides fragilis UC12199 UC (Upjohn Culture); type: functional
Staphylococcus aureus [8] = assay: Effective dose required to inhibit Staphylococcus aureus UC9271 in mice subjected to a lethal systemic infection (when administered orally); type: functional; settings: po
Mus musculus [9] = assay: as §1; type: functional, organism-based
Staphylococcus aureus [10] = assay: as §1; type: functional; settings: po

| MIC [1] [µg/mL] | MIC (Bacteroides fragilis [2]) [µg/mL] | MIC (Staphylococcus aureus [3]) [µg/mL] | MIC (Streptococcus pneumoniae) [µg/mL] | MIC (Enterococcus faecalis) [µg/mL] | MIC (Staphylococcus aureus [4]) [µg/mL] | MIC (Bacteroides fragilis [7]) [µg/mL] | SMILES | ED50 (Mus musculus [5]) [mg/kg] | ED50 (Mus musculus [6]) [mg/kg] | ED50 (Staphylococcus aureus [8]) [mg/kg] | EC50 (Mus musculus [9]) [mg/kg] | ED50 (Staphylococcus aureus [10]) [mg/kg] |
| --- | --- | --- | --- | --- | --- | --- | --- | --- | --- | --- | --- | --- |
| > 16 | > 16 | > 16 | > 16 | > 16 | > 16 | – | CC(=O)NC[C@@H]1OC(=O)N2c3ccc(C(C)=O)cc3CC[C@H]12 | – | – | – | – | – |
| > 16 | > 16 | > 16 | > 16 | > 16 | > 16 | – | CC(=O)NC[C@@H]1OC(=O)N2c3ccc(C(C)=O)cc3CC[C@@H]12 | – | – | – | – | – |
| > 16 | > 16 | > 16 | > 16 | > 16 | > 16 | – | CC(=O)NC[C@@H]1OC(=O)N2c3ccc(C(C)=O)cc3C[C@H]12 | – | – | – | – | – |
| 2 (≈ 6.94 µM) | 4 (≈ 13.9 µM) | 4 (≈ 13.9 µM) | 4 (≈ 13.9 µM) | 4 (≈ 13.9 µM) | 4 (≈ 13.9 µM) | – | CC(=O)NCC1OC(=O)N2c3ccc(C(C)=O)cc3CC12 (single isomer, unassigned; (+)) | – | – | – | – | – |
| > 64 | > 32 | > 64 | > 64 | > 64 | > 64 | – | CC(=O)NC[C@@H]1OC(=O)N2c3ccc(S(=O)(=O)N4CCCCC4)cc3C[C@@H]12 | – | – | – | – | – |
| 32 (≈ 96.6 µM) | > 16 | 64 (≈ 193 µM) | 32 (≈ 96.6 µM) | 128 (≈ 386 µM) | 64 (≈ 193 µM) | – | CC(=O)NC[C@@H]1OC(=O)N2c3ccc(N4CCOCC4)cc3C[C@@H]12 | – | > 20 | – | – | – |
| > 64 | > 32 | > 64 | > 64 | > 64 | > 64 | – | CC(=O)NC[C@@H]1OC(=O)N2c3ccc(S(N)(=O)=O)cc3C[C@@H]12 | – | – | – | – | – |
| > 64 | > 32 | > 64 | > 64 | > 64 | > 64 | – | CC(=O)NC[C@@H]1OC(=O)N2c3ccc(-c4cccnc4)cc3CC[C@H]12 | – | – | – | – | – |
| > 64 | > 32 | > 64 | > 64 | > 64 | > 64 | – | CC(=O)NC[C@@H]1OC(=O)N2c3ccc(S(=O)(=O)Nc4ccccc4)cc3C[C@@H]12 | – | – | – | – | – |
| > 32 | – | > 32 | > 32 | > 32 | > 32 | > 32 | CC(=O)NC[C@@H]1OC(=O)N2c3ccccc3C[C@H]12 | – | – | – | – | – |
| 2 (≈ 6.26 µM) | 4 (≈ 12.5 µM) | 4 (≈ 12.5 µM) | 1 (≈ 3.13 µM) | 4 (≈ 12.5 µM) | 4 (≈ 12.5 µM) | – | CC(=O)NC[C@H]1CN(c2ccc(N3CCOCC3)cc2)C(=O)O1 | – | – | – | – | – |
| > 64 | > 32 | > 64 | > 64 | > 64 | > 64 | – | CC(=O)NC[C@@H]1OC(=O)N2c3ccccc3CC[C@@H]12 | – | – | – | – | – |
| 64 (≈ 181 µM) | > 32 | 64 (≈ 181 µM) | 64 (≈ 181 µM) | > 64 | 64 (≈ 181 µM) | – | CC(=O)NC[C@@H]1OC(=O)N2c3ccc(S(=O)(=O)N(C)C)cc3C[C@@H]12 | – | – | – | – | – |
| 64 (≈ 197 µM) | > 32 | 64 (≈ 197 µM) | 16 (≈ 49.3 µM) | 64 (≈ 197 µM) | 32 (≈ 98.7 µM) | – | CC(=O)NC[C@@H]1OC(=O)N2c3ccc(S(C)(=O)=O)cc3C[C@@H]12 | – | – | – | – | – |
| > 64 | > 32 | > 64 | > 64 | > 64 | > 64 | – | CC(=O)NC[C@@H]1OC(=O)N2c3ccc(S(=O)(=O)NCc4ccccc4)cc3C[C@@H]12 | – | – | – | – | – |
| > 64 | > 32 | > 64 | > 64 | > 64 | > 64 | – | CC(=O)NC[C@@H]1OC(=O)N2c3ccc(S(=O)(=O)N4CCOCC4)cc3C[C@@H]12 | – | – | – | – | – |
| > 64 | > 32 | > 64 | > 64 | > 64 | > 64 | – | CCNS(=O)(=O)c1ccc2c(c1)C[C@H]1[C@H](CNC(C)=O)OC(=O)N21 | – | – | – | – | – |
| > 32 | > 32 | > 32 | > 32 | > 32 | > 32 | – | CC(=O)NC[C@@H]1OC(=O)N2c3ccccc3C[C@@H]12 | – | – | – | – | – |
| > 64 | > 32 | > 64 | > 64 | > 64 | > 64 | – | CC(=O)NC[C@@H]1OC(=O)N2c3ccc(S(=O)(=O)NC4CCCC4)cc3C[C@@H]12 | – | – | – | – | – |
| 16 (≈ 47.4 µM) | > 32 | 32 (≈ 94.8 µM) | 16 (≈ 47.4 µM) | 32 (≈ 94.8 µM) | 16 (≈ 47.4 µM) | – | CC(=O)NC[C@@H]1OC(=O)N2c3ccc(-c4cccnc4)cc3CC[C@@H]12 | – | – | – | – | – |
| > 64 | > 32 | > 64 | > 64 | > 64 | > 64 | – | CC(=O)NC[C@@H]1OC(=O)N2c3ccc(S(=O)(=O)N(C)CCCO)cc3C[C@@H]12 | – | – | – | – | – |
| > 64 | > 32 | > 64 | > 64 | > 64 | > 64 | – | CC(=O)NC[C@@H]1OC(=O)N2c3ccccc3CC[C@H]12 | – | – | – | – | – |

| SMILES | MIC [1] [µg/mL] | MIC (Bacteroides fragilis [2]) [µg/mL] | MIC (Staphylococcus aureus [3]) [µg/mL] | MIC (Streptococcus pneumoniae) [µg/mL] | MIC (Enterococcus faecalis) [µg/mL] | MIC (Staphylococcus aureus [4]) [µg/mL] | MIC (Bacteroides fragilis [7]) [µg/mL] | ED50 (Mus musculus [5]) [mg/kg] | ED50 (Mus musculus [6]) [mg/kg] | ED50 (Staphylococcus aureus [8]) [mg/kg] | EC50 (Mus musculus [9]) [mg/kg] | ED50 (Staphylococcus aureus [10]) [mg/kg] |
| --- | --- | --- | --- | --- | --- | --- | --- | --- | --- | --- | --- | --- |
| CN[C@H](CC(C)C)C(=O)N[C@H]1C(=O)N[C@@H](CC(N)=O)C(=O)N[C@H]2C(=O)N[C@H]3C(=O)N[C@H](C(=O)N[C@H](C(=O)O)c4cc(O)cc(O)c4-c4cc3ccc4O)[C@H](O)c3ccc(c(Cl)c3)Oc3cc2cc(c3O[C@@H]2O[C@H](CO)[C@@H](O)[C@H](O)[C@H]2O[C@H]2C[C@](C)(N)[C@H](O)[C@H](C)O2)Oc2ccc(cc2Cl)[C@H]1O [VANCOMYCIN] | 0.5 (≈ 0.345 µM) | > 16 | – | 0.5 (≈ 0.345 µM) | 4 (≈ 2.76 µM) | – | – | 1.1 | – | – | – | – |
| CC(=O)NC[C@@H]1OC(=O)N2c3ccc(-c4cccnc4)cc3C[C@@H]12 | 2 (≈ 6.19 µM) | 2 (≈ 6.19 µM) | 4 (≈ 12.4 µM) | – | 2 (≈ 6.19 µM) | 2 (≈ 6.19 µM) | – | 9.4 | – | 4.4 | – | – |
| CC(=O)NC[C@@H]1OC(=O)N2c3ccc(C(C)=O)cc3C[C@@H]12 | 8 (≈ 27.7 µM) | – | 8 (≈ 27.7 µM) | – | 16 (≈ 55.5 µM) | – | – | 39.5 | – | – | – | – |
| CC(=O)NC[C@@H]1OC(=O)N2c3ccc(-c4ccccc4)cc3C[C@@H]12 | 2 (≈ 6.2 µM) | 32 (≈ 99.3 µM) | – | – | 4 (≈ 12.4 µM) | – | – | – | – | – | > 25 | – |
| CC(=O)NC[C@H]1CN(c2ccc(C(C)=O)cc2)C(=O)O1 (racemic) [DUP-721] | 4 (≈ 14.5 µM) | 8 (≈ 29 µM) | 2 (≈ 7.24 µM) | 2 (≈ 7.24 µM) | 8 (≈ 29 µM) | 4 (≈ 14.5 µM) | – | – | – | 18.1 | – | 9.4 |
| CC(=O)NC[C@@H]1OC(=O)N2c3ccc(-c4ccc(C#N)cc4)cc3C[C@@H]12 | 2 (≈ 5.76 µM) | 32 (≈ 92.1 µM) | 4 (≈ 11.5 µM) | 2 (≈ 5.76 µM) | 2 (≈ 5.76 µM) | 4 (≈ 11.5 µM) | – | 17.1 | – | – | – | – |
| CC(=O)NC[C@@H]1OC(=O)N2c3ccc(-c4ccncc4)cc3C[C@@H]12 | – | 8 (≈ 24.7 µM) | – | – | 2 (≈ 6.19 µM) | – | – | – | – | 16.5 | – | 6.1 |
| CC(=O)NC[C@@H]1OC(=O)N2c3ccc(-c4cccnc4)cc3C[C@@H]12.Cl | 1 | 4 | 2 | 0.5 | 2 | 2 | – | 6 | – | – | – | – |
| CC(=O)NC[C@H]1CN(c2ccc(N3CCOCC3)c(F)c2)C(=O)O1 [LINEZOLID] | 1 (≈ 2.96 µM) | 4 (≈ 11.9 µM) | – | – | – | – | – | 2 | – | – | – | – |
| CC(=O)NC[C@@H]1OC(=O)N2c3ccc(-c4cncnc4)cc3C[C@@H]12 | 4 (≈ 12.3 µM) | 8 (≈ 24.7 µM) | 8 (≈ 24.7 µM) | – | 4 (≈ 12.3 µM) | 4 (≈ 12.3 µM) | – | 11.4 | – | – | – | – |
